Measurements taken from patent EP0420021B1, “Hydrophilic laminated porous membranes and methods of preparing same” (ABBOTT LABORATORIES, priority 1989, dated 1991).

Test: Capillary wicking time of laminated membrane strip (hydrophilicity)
Type: physicochemical
Excerpt: The terms "hydrophilic" and "wettable" are frequently used herein and are used interchangeably as antonyms for "hydrophobic". A number of procedures can be used to measure hydrophilicity. Since the membranes of the preferred embodiment resemble thin layer chromatograhic strips, hydrophilicity is here measured as the rate at which the solvent front traverses the membrane strips. Darcy's law provides a rate by relating the distance the front travels to the time t. For a fixed distance, L, the relevant measurement is the time taken for the front to reach L. A relative measure of hydrophilicity is given by comparing the time or "wicking" rate of treated laminated membranes against the time or wicking rate of untreated laminated membranes. Although relative hydrophilicity is sufficient, for purposes of this invention a membrane is considered "hydrophilic" if the flow rate is such that the front traverses a length compatible with visualizing a result (ie., 2 - 10 cm) in a time consistent with rapid diagnostic assays, (ie., less than 10 minutes and preferably less than 5 minutes).
[…] At various time intervals (0, 7, 14, 21, 28, 56, 84, 112, etc days) the hydrophilicity of the membrane was tested by immersing a strip of laminated membrane 1-3 mm into a test solution (0.1M Tris pH 7.4, 0.9% NaCl, phenol red) and measuring the time required for the solution front to migrate a distance of 5.4 cm. A more hydrophilic membrane requires a shorter time for the liquid to move 5.4 cm.

[1] = 0 days storage at 45° C, membrane treated with surfactant as example 4 Part E, laminated with Flexcon PM150C/V23/Poly SC9
[2] = 7 days storage at 45° C, surfactant-treated (example 4 Part E), Poly SC9 laminate
[3] = 14 days storage at 45° C, surfactant-treated (example 4 Part E), Poly SC9 laminate
[4] = 21 days storage at 45° C, surfactant-treated (example 4 Part E), Poly SC9 laminate
[5] = 28 days storage at 45° C, surfactant-treated (example 4 Part E), Poly SC9 laminate

| membrane wicking rate as a result of the treatment (Part B: surfactant 0.1% w/v from isopropanol) | Wicking Time to traverse 5.4 cm strip [1] | Wicking Time to traverse 5.4 cm strip [2] | Wicking Time to traverse 5.4 cm strip [3] | Wicking Time to traverse 5.4 cm strip [4] | Wicking Time to traverse 5.4 cm strip [5] | SMILES |
| --- | --- | --- | --- | --- | --- | --- |
| decreased |  |  |  |  |  | CCCCCCCCCCCCCCCCO [cetyl alcohol] |
|  | 5.7 min | 6.4 min | 6.0 min | 6.3 min | 6.2 min | CCCCCCCCCCS(=O)(=O)O [decane sulfonic acid] |
|  | 6.2 min | 6.4 min | 6.0 min | 6.3 min | 6.3 min | CCCCCCCCCCCCS(=O)(=O)O [dodecane sulfonic acid] |
|  | 4.9 min | 5.3 min | 5.2 min | 5.2 min | 5.3 min | CCCCCCCS(=O)(=O)O [heptane sulfonic acid] |
|  | 5.1 min | 5.6 min | 5.4 min | 5.6 min | 5.7 min | CCCCCCCCS(=O)(=O)O [octane sulfonic acid] |
|  | 4.1 min | 5.5 min | 5.4 min | 5.6 min | 5.6 min | CCCCCS(=O)(=O)O [pentane sulfonic acid] |
|  | 6.3 min | 7.1 min | 7.0 min | 6.4 min | 6.0 min | CCCCCCCCCCCCOS(=O)(=O)[O-].[Na+] [sodium dodecyl sulfate] |
